How the values were obtained:
[1] = tested on: human coronary artery smooth muscle cells (hCaSMC); assay: cytokine production by TNFα-treated human coronary artery smooth muscle cells (ELISA); assay type: cell-based; conditions: TNFα (5 ng/ml), 24 hours; for Maximal Inhibitory Activity, IL-6 / Maximal Inhibitory Activity, Il-8 / Maximal Inhibitory Activity, MCP-1: hCaSMC
Experimental: (§1) Experiments were performed to determine the effects of zotarolimus, sirolimus and dexamethasone on the production of TNFα, IL-6 and MCP-1 by activated human monocytes In addition to monocytes and macrophages two other key cell types are involved in the etiology of restenosis, arterial smooth muscle and endothelial cells. These cells are activated and produce cytokines in response to TNFα. […] The activation of cytokine production by human coronary artery smooth muscle and endothelial cells following TNFα treatment was determined by measuring interleukine-8 (IL-8), MCP-1 and IL-6 production. As shown by the results of the experiments described below, the ability of these compounds to inhibit the production of cytokines supports their use in combination as anti-restenotic agents since these cytokines play a role in the development of restenosis. […] After 24 hours, the supernatants were carefully collected and TNFα, IL-6 and MCP-1 levels determined by ELISA. Primary cultures of human coronary artery endothelial and smooth muscle cells were obtained from Cambrex and maintained as described by the vendor. […] After 24 hours the supernatants were removed and replaced with media containing TNFα (5 ng/ml) in the presence and absence of various concentrations of zotarolimus, dexamethasone or sirolimus. The cells were incubated for 24 hours and the supernatants carefully removed and frozen until measurement. Cytokine levels were measured in the supernatants by sandwich ELISA.

[2] = tested on: human coronary artery endothelial cells (hCaEC); assay: cytokine production by TNFα-treated human coronary artery endothelial cells (ELISA); assay type: cell-based; conditions: TNFα (5 ng/ml), 24 hours
Experimental: as §1

human monocytes = assay: cytokine production by LPS-stimulated human monocytes (ELISA); assay type: cell-based; conditions: for MCP-1 production by human monocytes in vitro: FIG. 10; for production of TNFα and IL-6 by human monocytes: FIGS. 10 and 11; for Maximal Inhibitory Activity, IL-6 / Maximal Inhibitory Activity, MCP-1 / Maximal Inhibitory Activity, TNF: Monocytes, 24 hours
Experimental: as §1

[3] = tested on: human coronary artery smooth muscle cells (hCaSMC); assay: 3H-thymidine uptake proliferation assay, hCaSMC; assay type: cell-based; conditions: for effect on the antiproliferative activity of zotarolimus in hCaSMC: FIG. 12
Experimental: Experiments were performed to investigate interactions between zotarolimus and the corticosteroid dexamethasone. The effect of dexamethasone on the antiproliferative activity of zotarolimus in human coronary artery smooth muscle ([…]) and endothelial […] determined using an in vitro proliferation assay. The proliferation and migration of vascular smooth muscle cells into the vascular neointima is a characteristic pathologic response seen in restenotic lesions (A. Lafont and P. Libby, The smooth muscle cell: sinner or saint in restenosis and the acute coronary syndromes? […] As a result, in vitro assays which specifically measure the antiproliferative activity of candidate anti-restenotic compounds on human coronary artery smooth muscle and endothelial cells should predict potential anti-restenotic activity in vivo. The tritium incorporation assay is an accurate and sensitive method used in the art to determine cell number and proliferation. Compounds or combinations of compounds which attenuate growth factor-mediated human coronary artery smooth muscle cell […]) proliferation, as measured by the tritium incorporation assay in vitro, are candidate anti-restenotic agents. […] Cell proliferation was monitored by following incorporation of ^3H-thymidine into newly synthesized DNA of cells stimulated by serum and growth factors. Exponentially growing […] were seeded into 96-well flat bottom tissue culture plates at 5,000 cells/well (10,000 cells/well for […]). The cells were allowed to attach overnight. The growth medium was removed the following day and cells were washed twice with unsupplemented (basal) medium to remove traces of serum and growth factors. Basal medium (200 μl) was added to each well and the cells incubated in medium lacking growth factors and serum to starve and synchronize them in the G0 state. After starvation (48 hours for […] and 39 hours for […]) in medium lacking serum and growth factors, the cells were replenished with 200 μl supplemented medium in the absence or presence of drugs at the desired concentrations. […] After a 72-hour incubation period, 25 μl (1 μCi/well) of ^3H-thymidine (Amersham Biosciences) were added to each well. The cells were incubated at 37° C. for 16-18 hours to allow incorporation of ^3H-thymidine into newly synthesized DNA and the cells harvested onto 96-well plates containing bonded glass fiber filters using a cell harvester (Harvester 9600, TOMTEC). […] Controls included medium only, starved cells and cells in complete medium. Drug activity was established by determining the inhibition of ^3H-thymidine incorporation into newly synthesized DNA relative to cells grown in complete medium. […] The final IC50s are means of the 3-4 experiments. In these experiments, the x-axis represents the concentration of the drug being varied. For most of these curves that is zotarolimus alone and in combination with a fixed concentration of dexamethasone. Each graph contains a dexamethasone alone curve and a zotarolimus alone curve. The set of curves in each graph is generated by adding dexamethasone at a fixed concentration (1, 5, 10 or 25 nM) to various concentrations of zotarolimus (0, 0.04, 0.08, 0.8, 4, 8, 40 nM). Each curve represents the dose-response of zotarolimus (whose concentration is given on the x-axis) in the presence of the fixed concentration of dexamethasone given in the legend). […] The concentration eliciting a specific antiproliferative effect was determined using a 4-parameter equation (Equation 1). […]

[4] = pharmacokinetics after a single intravenous dose in cynomolgus monkey; assay type: in vivo; conditions: single 2.5 mg/kg intravenous dose, blood, n=3
[5] = accelerated in vitro elution from PC-1036 coated stents; assay type: physicochemical
[6] = tested on: human coronary artery endothelial cells (hCaEC); assay: 3H-thymidine uptake proliferation assay, hCaEC; assay type: cell-based

Compound	Maximal Inhibitory Activity, IL-6 [1]	Maximal Inhibitory Activity, Il-8 [1]	Maximal Inhibitory Activity, MCP-1 [1]	Maximal Inhibitory Activity, IL-6 [2]	Maximal Inhibitory Activity, Il-8 [2]	Maximal Inhibitory Activity, MCP-1 [2]	MCP-1 production by human monocytes in vitro (human monocytes)	production of TNFα and IL-6 by human monocytes (human monocytes)	Maximal Inhibitory Activity, IL-6 (human monocytes)	Maximal Inhibitory Activity, MCP-1 (human monocytes)	Maximal Inhibitory Activity, TNF (human monocytes)	AUC [4] [ng·h/mL]	further results
CO[C@H]1C[C@@H]2CC[C@@H](C)[C@@](O)(O2)C(=O)C(=O)N2CCCC[C@H]2C(=O)O[C@H]([C@H](C)C[C@@H]2CC[C@@H](O)[C@H](OC)C2)CC(=O)[C@H](C)/C=C(\C)[C@@H](O)[C@@H](OC)C(=O)[C@H](C)C[C@H](C)/C=C/C=C/C=C/1C [Rapamycin]	− (− indicates maximal inhibitory activity less than 50% of control)	− (− indicates maximal inhibitory activity less than 50% of control)	− (− indicates maximal inhibitory activity less than 50% of control)	− (− indicates maximal inhibitory activity less than 50% of control)	− (− indicates maximal inhibitory activity less than 50% of control)	− (− indicates maximal inhibitory activity less than 50% of control)	dose-dependently inhibit MCP-1 production	not demonstrated	− (− indicates maximal inhibitory activity less than 50% of control)	+++ (+++ indicates maximal inhibitory activity of 75-100% of control)	− (− indicates maximal inhibitory activity less than 50% of control)		
C=CC[C@@H]1/C=C(\C)C[C@H](C)C[C@H](OC)[C@H]2O[C@@](O)(C(=O)C(=O)N3CCCC[C@H]3C(=O)O[C@H](/C(C)=C/[C@@H]3CC[C@@H](O)[C@H](OC)C3)[C@H](C)[C@@H](O)CC1=O)[C@H](C)C[C@@H]2OC [tacrolimus]													effect on the antiproliferative activity of zotarolimus in hCaSMC ([3]; tacrolimus 100 nM): increased the IC50 of zotarolimus; effect on the antiproliferative activity of zotarolimus in hCaSMC ([3]; tacrolimus 250 nM or greater, zotarolimus 4 nM): completely blocked the activity of zotarolimus
40-epi-N-[2′-pyridone]-rapamycin [Example 2-pyridone]												2.55	
COC1CC2CCC(C)C(O)(O2)C(=O)C(=O)N2CCCCC2C(=O)OC(C(C)CC2CCC(n3ccc(=O)cc3)C(OC)C2)CC(=O)C(C)C=C(C)C(O)C(OC)C(=O)C(C)CC(C)C=CC=CC=C1C (stereo not drawn) [Example 4-pyridone, 40-epi-N-[4′-pyridone]-rapamycin]												5.59	
C[C@@H]1C[C@H]2[C@@H]3CCC4=CC(=O)C=C[C@]4(C)[C@@]3(F)[C@@H](O)C[C@]2(C)[C@@]1(O)C(=O)CO [Dexamethasone]	+ (+ indicates maximal inhibitory activity of 50-75% of control)	+ (+ indicates maximal inhibitory activity of 50-75% of control)	+ (+ indicates maximal inhibitory activity of 50-75% of control)	− (− indicates maximal inhibitory activity less than 50% of control)	− (− indicates maximal inhibitory activity less than 50% of control)	− (− indicates maximal inhibitory activity less than 50% of control)	dose-dependently inhibit MCP-1 production	potently blocks the production of TNFα and IL-6	+++ (+++ indicates maximal inhibitory activity of 75-100% of control)	+ (+ indicates maximal inhibitory activity of 50-75% of control)	+++ (+++ indicates maximal inhibitory activity of 75-100% of control)		block of hCaSMC IL-6 production [1]: 65.7%; block of hCaSMC IL-8 production [1]: 68.4%; block of hCaSMC MCP-1 production [1]: 57.2%; burst release at the beginning of elution ([5]; stent with 10 μg/mm each drug, 5 μg/mm PC-1036 topcoat, 10 mM acetate buffer pH 4.0, 1% Solutol HS 15, 37° C., 24-hour profile): slightly larger burst release at the beginning than zotarolimus; effect on the elution profile of zotarolimus ([5]; zotarolimus alone vs in the presence of dexamethasone, same conditions): little effect on the elution profile of zotarolimus; IC50 ([3]; Homo sapiens, 3 h, read-out: hCaSMC IC50 Mean ± SEM): 9.3 nM; inhibition of hCaSMC proliferation ([3]; dexamethasone alone at or above 10 nM): N.D.* Not detectable: Concentrations of dexamethasone alone at or above 10 nM inhibit proliferation by greater than 50% preventing calculation of zotarolimus IC50's in these experiments.; effect on proliferation of hCaEC ([6]; FIG. 13): does not affect the proliferation of hCaEC; IC50 ([6]; Homo sapiens, Endothelial cell, 3 h, read-out: hCaEC IC50 Mean ± SEM): > 10000 nM
